The source of these data is patent US20240043404A1 (AbbVie Inc., priority 2009, published 2024).

In this test the test system is RS4;11 cells. Nature of the test: RS4;11 cell viability assay (CellTiter Glo).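 Further: acute lymphoblastic leukemia line RS4,11, EC50 derived from percentage of viable cells after treatment relative to untreated controls, cell killing taken as a measure of Bcl-2 inhibition.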 Format: cell-based, human. The following applies: Homo sapiens, RS4-11, 48 h, 50,000 cells per well, 10% human serum, 48 hours; read-out: RS4; 11 EC50 Values. In general terms: Cellular ATP, detected with luciferase, serves as a proxy for viable cell number.
Experimental: The acute lymphoblastic leukemia (ALL) cell line RS4;11 was used as the primary human cell line to assess the cellular activity of Bcl-2 selective agents in vitro and their efficacy in vivo.
Cell cytotoxicity EC50 values were assessed using CellTiter Glo (Promega) according to the manufacturer's recommendations. The EC50 values were determined as a percentage of viable cells following treatment compared to the untreated control cells.
Turning to `O=C(NS(=O)(=O)c1ccc(NC[C@H]2CC[C@H](O)CC2)c([N+](=O)[O-])c1)c1ccc(N2CCN(CC3=C(c4ccc(Cl)cc4)CCC(F)(F)C3)CC2)cc1Oc1cnc2[nH]ccc2c1` [Example 324, 4-(4-{[2-(4-chlorophenyl)-5,5-difluorocyclohex-1-en-1-yl]methyl}piperazin-1-yl)-N-[(4-{[(trans-4-hydroxycyclohexyl)methyl]amino}-3-nitrophenyl)sulfonyl]-2-(1H-pyrrolo[2,3-b]pyridin-5-yloxy)benzamide], the EC50 was determined as 4.53 nM. Take `CC(C)N1CCC2(CCC(c3ccc(Cl)cc3)=C(CN3CCN(c4ccc(C(=O)NS(=O)(=O)c5ccc(NCC6CCOCC6)c(C(F)(F)F)c5)c(Oc5cnc6[nH]ccc6c5)c4)CC3)C2)CC1` [Example 273, 4-(4-{[9-(4-chlorophenyl)-3-isopropyl-3-azaspiro[5.5]undec-8-en-8-yl]methyl}piperazin-1-yl)-2-(1H-pyrrolo[2,3-b]pyridin-5-yloxy)-N-({4-[(tetrahydro-2H-pyran-4-ylmethyl)amino]-3-(trifluoromethyl)phenyl}sulfonyl)benzamide]: the EC50 amounted to 209 nM. On to `CC1(C)CCC(CN2CCN(c3ccc(C(=O)NS(=O)(=O)c4cnc(N[C@@H]5CCN(C(CF)CF)C5)c(Cl)c4)c(Oc4cnc5[nH]ccc5c4)c3)CC2)=C(c2ccc(Cl)cc2)C1` [Example 231, N-[(5-chloro-6-{[(3R)-1-(1,3-difluoropropan-2-yl)pyrrolidin-3-yl]amino}pyridin-3-yl)sulfonyl]-4-(4-{[2-(4-chlorophenyl)-4,4-dimethylcyclohex-1-en-1-yl]methyl}piperazin-1-yl)-2-(1H-pyrrolo[2,3-b]pyridin-5-yloxy)benzamide], for which the EC50 stood at 523 nM. With `CN(C)CC(=O)N1CC[C@@H](Nc2ccc(S(=O)(=O)NC(=O)c3ccc(N4CCN(CC5=C(c6ccc(Cl)cc6)CC(C)(C)CC5)CC4)cc3Oc3cnc4[nH]ccc4c3)cc2[N+](=O)[O-])C1` [Example 255, 4-(4-{[2-(4-chlorophenyl)-4,4-dimethylcyclohex-1-en-1-yl]methyl}piperazin-1-yl)-N-[(4-{[(3R)-1-(N,N-dimethylglycyl)pyrrolidin-3-yl]amino}-3-nitrophenyl)sulfonyl]-2-(1H-pyrrolo[2,3-b]pyridin-5-yloxy)benzamide], the EC50 turned out to be 9 nM.

As to `CC1(C)CCC(CN2CCN(c3ccc(C(=O)NS(=O)(=O)c4ccc(NC5CCC(N(CCC#N)C6CC6)CC5)c([N+](=O)[O-])c4)c(Oc4cnc5[nH]ccc5c4)c3)CC2)=C(c2ccc(Cl)cc2)C1` (stereo not drawn) [Example 340, 4-(4-{[2-(4-chlorophenyl)-4,4-dimethylcyclohex-1-en-1-yl]methyl}piperazin-1-yl)-N-{[4-({4-[(2-cyanoethyl)(cyclopropyl)amino]cyclohexyl}amino)-3-nitrophenyl]sulfonyl}-2-(1H-pyrrolo[2,3-b]pyridin-5-yloxy)benzamide], the EC50 stood at 56.5 nM.

For `CC1(C)CCC(CN2CCN(c3ccc(C(=O)NS(=O)(=O)c4ccc(N[C@H]5CC[C@H](NS(C)(=O)=O)CC5)c([N+](=O)[O-])c4)c(Oc4cnc5[nH]ccc5c4)c3)CC2)=C(c2ccc(Cl)cc2)C1` [Example 189, Trans-4-(4-{[2-(4-chlorophenyl)-4,4-dimethylcyclohex-1-en-1-yl]methyl}piperazin-1-yl)-N-{[4-({4-[(methylsulfonyl)amino]cyclohexyl}amino)-3-nitrophenyl]sulfonyl}-2-(1H-pyrrolo[2,3-b]pyridin-5-yloxy)benzamide], the EC50 was 144 nM.

On to `CC1(C)CCC(CN2CCN(c3ccc(C(=O)NS(=O)(=O)c4cnc(OCC5CCOCC5)c(C#N)c4)c(Oc4cnc5[nH]ccc5c4)c3)CC2)=C(c2ccc(Cl)cc2)C1` [Example 36, 4-(4-{[2-(4-chlorophenyl)-4,4-dimethylcyclohex-1-en-1-yl]methyl}piperazin-1-yl)-N-{[5-cyano-6-(tetrahydro-2H-pyran-4-ylmethoxy)pyridin-3-yl]sulfonyl}-2-(1H-pyrrolo[2,3-b]pyridin-5-yloxy)benzamide], for which the EC50 amounted to 181 nM. The figure for `CC1(C)CCC(CN2CCN(c3ccc(C(=O)NS(=O)(=O)c4ccc(NCc5ccc(OCCN6CCOCC6)cc5)c([N+](=O)[O-])c4)c(Oc4cnc5[nH]ccc5c4)c3)CC2)=C(c2ccc(Cl)cc2)C1` [Example 198, 4-(4-{[2-(4-chlorophenyl)-4,4-dimethylcyclohex-1-en-1-yl]methyl}piperazin-1-yl)-N-[(4-{[4-(2-morpholin-4-ylethoxy)benzyl]amino}-3-nitrophenyl)sulfonyl]-2-(1H-pyrrolo[2,3-b]pyridin-5-yloxy)benzamide] is 36.2 nM; for `CC1(C)CCC(CN2CCN(c3ccc(C(=O)NS(=O)(=O)c4ccc(NCC5COCCN5)c([N+](=O)[O-])c4)c(Oc4cnc5[nH]ccc5c4)c3)CC2)=C(c2ccc(Cl)cc2)C1` (stereo not drawn) [Example 66, 4-(4-{[2-(4-chlorophenyl)-4,4-dimethylcyclohex-1-en-1-yl]methyl}piperazin-1-yl)-N-({4-[(morpholin-3-ylmethyl)amino]-3-nitrophenyl}sulfonyl)-2-(1H-pyrrolo[2,3-b]pyridin-5-yloxy)benzamide] it is 18.9 nM; for `COC1(COc2ccc(S(=O)(=O)NC(=O)c3ccc(N4CCN(CC5=C(c6ccc(Cl)cc6)CC(C)(C)CC5)CC4)cc3Oc3cnc4[nH]ccc4c3)cc2[N+](=O)[O-])CCOCC1` [Example 234, 4-(4-{[2-(4-chlorophenyl)-4,4-dimethylcyclohex-1-en-1-yl]methyl}piperazin-1-yl)-N-({4-[(4-methoxytetrahydro-2H-pyran-4-yl)methoxy]-3-nitrophenyl}sulfonyl)-2-(1H-pyrrolo[2,3-b]pyridin-5-yloxy)benzamide] it is 135 nM. With `CC1(C)CCC(CN2CCN(c3ccc(C(=O)NS(=O)(=O)c4cnc(OCC5CCN(CC#N)CC5)c(Cl)c4)c(Oc4cnc5[nH]ccc5c4)c3)CC2)=C(c2ccc(Cl)cc2)C1` [Example 253, N-[(5-chloro-6-{[1-(cyanomethyl)piperidin-4-yl]methoxy}pyridin-3-yl)sulfonyl]-4-(4-{[2-(4-chlorophenyl)-4,4-dimethylcyclohex-1-en-1-yl]methyl}piperazin-1-yl)-2-(1H-pyrrolo[2,3-b]pyridin-5-yloxy)benzamide] the figure was 49.6 nM; with `CN1CCN(Nc2ccc(S(=O)(=O)NC(=O)c3ccc(N4CCN(CC5=C(c6ccc(Cl)cc6)CC(C)(C)OC5)CC4)cc3Oc3cnc4[nH]ccc4c3)cc2[N+](=O)[O-])CC1` [Example 67, 4-(4-{[4-(4-chlorophenyl)-6,6-dimethyl-5,6-dihydro-2H-pyran-3-yl]methyl}piperazin-1-yl)-N-({4-[(4-methylpiperazin-1-yl)amino]-3-nitrophenyl}sulfonyl)-2-(1H-pyrrolo[2,3-b]pyridin-5-yloxy)benzamide], 49.5 nM; with `CC1(C)CCC(CN2CCN(c3ccc(C(=O)NS(=O)(=O)c4cnc(NCC5CN(C6CC6)CCO5)c(Cl)c4)c(Oc4cnc5[nH]ccc5c4)c3)CC2)=C(c2ccc(Cl)cc2)C1` (stereo not drawn) [Example 335, N-[(5-chloro-6-{[(4-cyclopropylmorpholin-2-yl)methyl]amino}pyridin-3-yl)sulfonyl]-4-(4-{[2-(4-chlorophenyl)-4,4-dimethylcyclohex-1-en-1-yl]methyl}piperazin-1-yl)-2-(1H-pyrrolo[2,3-b]pyridin-5-yloxy)benzamide], 270 nM. For the compound `CC1(C)CCC(CN2CCN(c3ccc(C(=O)NS(=O)(=O)c4ccc(NC5CCN(C(C)(C)C)CC5)c(S(=O)(=O)C(F)(F)F)c4)c(Oc4cnc5[nH]ccc5c4)c3)CC2)=C(c2ccc(Cl)cc2)C1` [Example 240, N-({4-[(1-tert-butylpiperidin-4-yl)amino]-3-[(trifluoromethyl)sulfonyl]phenyl}sulfonyl)-4-(4-{[2-(4-chlorophenyl)-4,4-dimethylcyclohex-1-en-1-yl]methyl}piperazin-1-yl)-2-(1H-pyrrolo[2,3-b]pyridin-5-yloxy)benzamide], the EC50 came to 17.3 nM. With `CO[C@H]1CC[C@H](COc2ccc(S(=O)(=O)NC(=O)c3ccc(N4CCN(CC5=C(c6ccc(Cl)cc6)CC(C)(C)CC5)CC4)cc3Oc3cnc4[nH]ccc4c3)cc2[N+](=O)[O-])CC1` [Example 125, Trans-4-(4-{[2-(4-chlorophenyl)-4,4-dimethylcyclohex-1-en-1-yl]methyl}piperazin-1-yl)-N-({4-[(4-methoxycyclohexyl)methoxy]-3-nitrophenyl}sulfonyl)-2-(1H-pyrrolo[2,3-b]pyridin-5-yloxy)benzamide] the figure was 8.38 nM; with `CC1(C)CCC(CN2CCN(c3ccc(C(=O)NS(=O)(=O)c4ccc(NCc5cccc(O)c5)c([N+](=O)[O-])c4)c(Oc4cnc5[nH]ccc5c4)c3)CC2)=C(c2ccc(Cl)cc2)C1` [Example 186, 4-(4-{[2-(4-chlorophenyl)-4,4-dimethylcyclohex-1-en-1-yl]methyl}piperazin-1-yl)-N-({4-[(3-hydroxybenzyl)amino]-3-nitrophenyl}sulfonyl)-2-(1H-pyrrolo[2,3-b]pyridin-5-yloxy)benzamide], 64.4 nM. Turning to `CC1(C)CCC(CN2CCN(c3ccc(C(=O)NS(=O)(=O)c4ccc(NCC5CCC(C)(C#N)CC5)c([N+](=O)[O-])c4)c(Oc4cnc5[nH]ccc5c4)c3)CC2)=C(c2ccc(Cl)cc2)C1` (stereo not drawn) [Example 366, 4-(4-{[2-(4-chlorophenyl)-4,4-dimethylcyclohex-1-en-1-yl]methyl}piperazin-1-yl)-N-[(4-{[(4-cyano-4-methylcyclohexyl)methyl]amino}-3-nitrophenyl)sulfonyl]-2-(1H-pyrrolo[2,3-b]pyridin-5-yloxy)benzamide], the EC50 turned out to be 16.5 nM. Turning to `CC1(C)CCC(CN2CCN(c3ccc(C(=O)NS(=O)(=O)c4cnc(OCC5CCC(F)(F)CC5)c(Cl)c4)c(Oc4cnc5[nH]ccc5c4)c3)CC2)=C(c2ccc(Cl)cc2)C1` [Example 287, N-({5-chloro-6-[(4,4-difluorocyclohexyl)methoxy]pyridin-3-yl}sulfonyl)-4-(4-{[2-(4-chlorophenyl)-4,4-dimethylcyclohex-1-en-1-yl]methyl}piperazin-1-yl)-2-(1H-pyrrolo[2,3-b]pyridin-5-yloxy)benzamide], the EC50 amounted to 593 nM.
